{
  "source": "paper PMC11984586",
  "about": "“A novel spider toxin as a selective antagonist of the Kv1 subfamily of voltage-gated potassium channels through gating modulation” (The Journal of Biological Chemistry, 2025)",
  "key": {"[1]": {"tested_on": "Kv1.4/Y416A", "test": "Whole-cell patch clamp, Tyr-to-Ala mutant homologous to Kv1.3 Y339", "type": "cell-based, rat", "conditions": "10 μM MrVIII, +30 mV, 500 ms, holding −80 mV, mean ± SD, n = 4–6", "excerpt": "Building on the identification of key amino acid residues in Kv1.3 channel that interact with MrVIII through alanine-scanning mutagenesis, we extended our analysis to explore these residues across other Kv1 subfamily channels. […] However, MrVIII retained substantial inhibitory potency on Kv1.2/Y266A mutant, albeit without fully blocking the channel current. […] The profound reduction in MrVIII's effect across homologous mutants supports the idea that it binds to a conserved region.\n(§1) The cDNA of hKv1.1, hKv1.2, hKv1.3, rKv1.4, hKv1.5, mKv1.6, and hKv1.7 were subcloned into mammalian expression vectors pcDNA3.1 or pCMV-blank vectors, as well as other plasmids described previously ([35]). Channel mutants were generated by site-directed mutations. Briefly, the parental channel plasmid was amplified using a pair of oppositely directed primers harboring the designed mutation site, with KOD Fx (TOYOBO Co, Ltd). The resulting PCR mix was treated with FastDigest DpnI (Thermo Fisher Scientific) to remove the methylated template. […]\n(§2) CHO-K1 cells were selected for expressing Kv channels due to their lack of endogenous Kv channels, while HEK293 or ND7/23 cells were used for Nav and Cav channel expression. […] After 4 to 6 h transfection, cells were seeded onto poly-lysine–coated coverslips, and 24 to 36 h later, transfected cells were ready for patch-clamp analysis. […]"}, "[2]": {"biological_target": "T1, hKv1.2 (Homo sapiens, UniProt P16389)", "T1 construct": "expressed in transfected cells; host or cells: CHO-K1", "T1 sequence (P16389 whole entry)": "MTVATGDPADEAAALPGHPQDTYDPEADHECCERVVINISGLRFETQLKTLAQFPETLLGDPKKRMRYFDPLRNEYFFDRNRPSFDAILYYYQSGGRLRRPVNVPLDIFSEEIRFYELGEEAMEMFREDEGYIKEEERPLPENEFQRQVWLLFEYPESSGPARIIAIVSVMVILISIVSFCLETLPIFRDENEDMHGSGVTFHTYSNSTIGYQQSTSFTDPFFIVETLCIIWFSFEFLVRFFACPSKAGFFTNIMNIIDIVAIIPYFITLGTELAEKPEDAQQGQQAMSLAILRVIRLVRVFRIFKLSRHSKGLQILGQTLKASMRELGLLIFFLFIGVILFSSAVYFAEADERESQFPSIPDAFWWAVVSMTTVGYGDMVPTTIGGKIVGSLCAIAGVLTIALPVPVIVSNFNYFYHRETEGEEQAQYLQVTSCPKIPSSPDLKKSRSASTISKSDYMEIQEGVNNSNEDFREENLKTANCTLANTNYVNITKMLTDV", "test": "Whole-cell patch clamp, Kv1.2 ionic current in CHO-K1 cells", "type": "cell-based", "conditions": "+30 mV, 500 ms, holding −80 mV, mean ± SD, n = 4–7, read-out: IC50, inhibition of Kv1.2 current (full inhibition)", "experimental": "as §1, with “template. Ten microliters of the digested product was then used to transform 100 μl E. coli DH5α competent cells.” for “template.”\nas §2\nFor Kv current recordings, the bath solution contained (in mM) the following: 140 NaCl, 5 KCl, 1 MgCl2, 2 CaCl2, 10 glucose, and 10 Hepes (pH 7.3, adjusted with NaOH), and the pipette solution contained (in mM) the following: 140 KCl, 2.5 MgCl2, 11 EGTA, and 10 Hepes (pH 7.3, adjusted with KOH). […] The steady-state fast inactivation of Kv1.3 was measured using a two-pulses protocol. […]"}},
  "note": "Bridge positions count the residues as written; N and C are the ends. Peptide text beside a SMILES is read from it.",
  "data": [
    {"compound": "CC[C@H](C)[C@@H]1NC(=O)[C@H](Cc2ccc(O)cc2)NC(=O)[C@H](CCC(N)=O)NC(=O)[C@@H]2CCCN2C(=O)[C@@H]2CSSC[C@H](NC(=O)[C@H](C)NC(=O)[C@H](CO)NC(=O)[C@H](CCC(=O)O)NC(=O)[C@H](CCC(=O)O)NC(=O)[C@@H](N)[C@@H](C)O)C(=O)NCC(=O)NCC(=O)N[C@@H](Cc3ccccc3)C(=O)N[C@@H](CC(N)=O)C(=O)N[C@@H](C)C(=O)N[C@@H](CCCNC(=N)N)C(=O)N[C@H]3CSSC[C@H](NC1=O)C(=O)N[C@@H](CCCCN)C(=O)NCC(=O)N[C@@H](Cc1c[nH]c4ccccc14)C(=O)N[C@@H](CCCNC(=N)N)C(=O)N[C@@H]([C@@H](C)O)C(=O)N[C@@H](CCCCN)C(=O)N[C@@H](CCCNC(=N)N)C(=O)N[C@H](C(=O)N[C@@H](CC(C)C)C(=O)N[C@@H](CC(N)=O)C(=O)N1CCC[C@H]1C(=O)O)CSSC[C@H](NC(=O)[C@H](CCCCN)NC(=O)[C@H](Cc1c[nH]cn1)NC(=O)[C@H](CC(C)C)NC(=O)[C@@H]1CCCN1C3=O)C(=O)N2", "note": "[MrVIII] (H-TEESACGGFNARCPLHKCCPQYICKGWRTKRCLNP-OH; disulfide 6-19, 13-24, 18-32; N-terminus and C-terminus assumed)", "values": [
      {"measurement": "inhibition of Kv1.4/Y416A current", "setting": "[1]", "result": "63.5 ± 18.4", "unit": "%"},
      {"measurement": "IC50", "setting": "[2]", "result": "0.5 ± 0.1", "unit": "nM"}
    ]}
  ]
}
